In patent publication US20230277534A1 (Plexxikon Inc., priority 2011, published 2023):

Legend:
B-Raf V600E = B-Raf V600E (Homo sapiens (Human), UniProt P15056, V600E); assay: B-Raf V600E kinase biochemical activity assay (AlphaScreen, biotin-MEK1 substrate); settings: 100 μM ATP
Outline: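 B-Raf V600E (0.1 ng) phosphorylated 100 nM biotin-MEK1 with 100 μM ATP (final) in HEPES pH 7.0 with Mg2+/Mn2+ for 45 min at room temperature. Compounds were tested over an 8-point serial dilution. Phospho-MEK1/2 was detected by AlphaScreen after 3 h with beads, and IC50 came from signal versus concentration.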

[1] = tested on: IPC-298 human melanoma cell line that expresses activated NRAS; assay: IPC-298_P-ERK cell activation assay (phosphorylated ERK, AlphaScreen); format: cell-based; settings: 1 h, IPC-298 cells, P-ERK activation, compound for one hour
Protocol: B9 is a squamous cell carcinoma cell line expressing activated HRAS that was isolated from a DMBA/TPA-induced mouse model of skin carcinogenesis (Stoler, et al. The Journal of Cell Biology, 1993, 122(5), 1103-17). IPC-298 is a human melanoma cell line that expresses activated NRAS (Aubert, et al. International Journal of Cancer, 1993, 54(5), 784-92). To determine whether compounds induce phosphorylated ERK and MEK, cells are plated in a 96-well dish and treated with an 8-point titration of compound for one hour at 37° C. The media is then removed and the cells are incubated with lysis buffer containing protease and phosphatase inhibitors. Phosphorylated ERK and MEK in the resulting lysates is detected using AlphaScreen™ technology. To detect phosphorylated ERK, cell lysates are incubated with streptavidin-coated donor beads, anti-mouse IgG acceptor beads, a biotinylated anti-ERK1/2 rabbit antibody, and a mouse antibody that recognizes ERK1/2 only when it is phosphorylated on Thr202 and Tyr204. The biotinylated ERK1/2 antibody will bind to both the streptavidin-coated donor beads and to ERK1/2 (regardless of its phosphorylation state), and the phospho-ERK1/2 antibody will bind to the acceptor beads and to ERK1/2 that is phosphorylated at Thr202/Tyr204. Excitation of the beads with laser light at 680 nm produces singlet oxygen, which is rapidly quenched unless the beads are in close proximity. When ERK is phosphorylated, both antibodies can bind the same protein, bringing the donor and acceptor beads into close proximity, producing a signal that can be measured at 580 nm. MEK phosphorylation is detected using a similar approach, only with antibodies directed against total MEK1/2 and MEK1/2 that is phosphorylated at Ser217 and Ser221.

[2] = tested on: COLO205 colon adenocarcinoma cells (B-Raf V600E mutation); assay: COLO205 cell growth inhibition (ATPlite); format: cell-based; settings: Homo sapiens, COLO 205, 72 h, 3 days
Outline: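 Cells treated for 3 days at 37 °C, 5% CO2 with an 8-point 1:3 dilution series, top final concentration 10 μM, DMSO control. ATPlite luminescence used as a measure of cell number; IC50 from reading versus concentration.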

[3] = tested on: A375 melanoma cells (B-Raf V600E mutation); assay: A375 (A375_P-ERK) cell activity / cell growth inhibition; format: cell-based; settings: Homo sapiens, A-375
Protocol: Compounds are assessed in a variety of cell based assays.
On day 1, cells are counted, then centrifuged in a conical tube for 5 minutes at 1000 rpm.
On day 2, compound at a maximum concentration of 5 mM is serially diluted 1:3 (e.g. 10 μL with 30 μL dimethyl sulfoxide) for a total of 8 point titration with DMSO as a control. A 1 μL aliquot of each dilution point and control is added to 249 μL growth media and 50 μL is added to a well containing cells, providing 10 μM compound at the maximum concentration point. The cells are incubated for 3 days at 37° C. in 5% CO2.
ATPlite is added 25 μL to each well, shake for 2 minutes, and the cells are incubated at room temperature for 10 minutes, then luminescence is read on Safire reader. The measured luminescence correlates directly with cell number, such that the reading as a function of compound concentration is used to determine the IC50 value.

Chain of B-Raf V600E (P15056 whole entry V600E): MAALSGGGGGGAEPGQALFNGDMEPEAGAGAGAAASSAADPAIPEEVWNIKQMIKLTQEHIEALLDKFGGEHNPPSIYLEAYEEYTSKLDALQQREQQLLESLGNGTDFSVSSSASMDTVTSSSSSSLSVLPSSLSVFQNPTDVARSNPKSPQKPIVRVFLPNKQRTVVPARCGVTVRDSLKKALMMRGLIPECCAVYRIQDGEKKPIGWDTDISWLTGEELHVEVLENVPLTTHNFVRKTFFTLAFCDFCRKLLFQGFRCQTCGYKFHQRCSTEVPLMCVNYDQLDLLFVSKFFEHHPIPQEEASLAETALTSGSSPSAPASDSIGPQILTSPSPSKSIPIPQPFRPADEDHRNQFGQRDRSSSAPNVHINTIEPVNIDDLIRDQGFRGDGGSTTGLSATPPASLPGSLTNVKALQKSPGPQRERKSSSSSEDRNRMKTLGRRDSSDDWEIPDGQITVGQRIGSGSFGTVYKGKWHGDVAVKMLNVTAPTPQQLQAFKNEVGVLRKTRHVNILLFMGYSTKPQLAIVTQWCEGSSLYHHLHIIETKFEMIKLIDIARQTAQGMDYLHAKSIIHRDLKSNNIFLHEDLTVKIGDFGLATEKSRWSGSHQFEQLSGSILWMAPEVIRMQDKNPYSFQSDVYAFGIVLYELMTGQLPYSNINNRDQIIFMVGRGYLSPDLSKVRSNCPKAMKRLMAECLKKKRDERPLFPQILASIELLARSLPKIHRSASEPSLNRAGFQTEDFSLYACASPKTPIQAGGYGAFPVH

| IC50 (B-Raf V600E) | EC50 [1] | IC50 [2] | IC50 [3] | Compound |
| --- | --- | --- | --- | --- |
| < 0.1 µM | > 2 µM | < 1 µM |  | O=C(c1c(F)ccc(NS(=O)(=O)N2CCCC2)c1F)c1c[nH]c2ncc(-c3ccnc(C4CC4)c3)cc12 [Compound P-0295, N-[3-[5-(2-cyclopropyl-4-pyridyl)-1H-pyrrolo[2,3-b]pyridine-3-carbonyl]-2,4-difluoro-phenyl]pyrrolidine-1-sulfonamide] |
| < 0.1 µM | > 2 µM | < 1 µM |  | CC(C)(O)c1nc(-c2cnc3[nH]cc(C(=O)c4c(F)ccc(NS(=O)(=O)N5CCCC5)c4F)c3c2)cs1 [Compound P-0265, N-[2,4-difluoro-3-[5-[2-(1-hydroxy-1-methyl-ethyl)thiazol-4-yl]-1H-pyrrolo[2,3-b]pyridine-3-carbonyl]phenyl]pyrrolidine-1-sulfonamide] |
| < 0.1 µM | > 1 µM | > 1 µM |  | COc1cc(-c2cnc3[nH]cc(C(=O)c4cccc(NS(=O)(=O)N(C)C)c4F)c3c2)ccc1C#N [Compound P-0054, 5-(4-cyano-3-methoxy-phenyl)-3-[3-(dimethylsulfamoylamino)-2-fluoro-benzoyl]-1H-pyrrolo[2,3-b]pyridine] |
| < 0.1 µM | > 10 µM | < 1 µM |  | CCN(C)S(=O)(=O)Nc1cccc(C(=O)c2c[nH]c3ncc(-c4cnc(C)nc4)cc23)c1F [Compound P-0056, 3-[3-[[ethyl(methyl)sulfamoyl]amino]-2-fluoro-benzoyl]-5-(2-methylpyrimidin-5-yl)-1H-pyrrolo[2,3-b]pyridine] |
| < 0.1 µM | > 4 µM | < 1 µM |  | COc1cc(-c2cnc3[nH]cc(C(=O)c4cccc(NS(=O)(=O)N5CCCC5)c4F)c3c2)ccc1C#N [Compound P-0049, N-[3-[5-(4-cyano-3-methoxy-phenyl)-1H-pyrrolo[2,3-b]pyridine-3-carbonyl]-2-fluoro-phenyl]pyrrolidine-1-sulfonamide] |
| < 0.1 µM | > 10 µM | < 1 µM |  | O=C(c1cccc(NS(=O)(=O)N2CCCC2)c1F)c1c[nH]c2ncc(-c3cnc(C4CC4)nc3)cc12 [Compound P-0048, N-[3-[5-(2-cyclopropylpyrimidin-5-yl)-1H-pyrrolo[2,3-b]pyridine-3-carbonyl]-2-fluoro-phenyl]pyrrolidine-1-sulfonamide] |
| < 0.1 µM | > 10 µM | > 1 µM |  | CCN(C)S(=O)(=O)Nc1ccc(F)c(C(=O)c2c[nH]c3ncc(Cl)cc23)c1F [Compound P-0012, 5-chloro-3-[3-[[ethyl(methyl)sulfamoyl]amino]-2,6-difluoro-benzoyl]-1H-pyrrolo[2,3-b]pyridine] |

Further lines, the compound ahead of its results:

| Compound | IC50 (B-Raf V600E) | EC50 [1] | IC50 [2] | IC50 [3] |
| --- | --- | --- | --- | --- |
| CC(C)N(C)S(=O)(=O)Nc1cccc(C(=O)c2c[nH]c3ncc(-c4cnc(C5CC5)nc4)cc23)c1F [Compound P-0233, 5-(2-cyclopropylpyrimidin-5-yl)-3-[2-fluoro-3-[[isopropyl(methyl)sulfamoyl]amino]benzoyl]-1H-pyrrolo[2,3-b]pyridine] | < 0.1 µM |  | > 1 µM | > 1 µM |
| Cc1ccc(-c2cnc3[nH]cc(C(=O)c4cccc(NS(=O)(=O)N5CCCC5)c4F)c3c2)cn1 [Compound P-0045, N-[2-fluoro-3-[5-(6-methyl-3-pyridyl)-1H-pyrrolo[2,3-b]pyridine-3-carbonyl]phenyl]pyrrolidine-1-sulfonamide] | < 0.1 µM | > 10 µM | < 1 µM |  |
| CCN(C)S(=O)(=O)Nc1cccc(C(=O)c2c[nH]c3ncc(-c4ccc(C(F)(F)F)nc4)cc23)c1F [Compound P-0059, 3-[3-[[ethyl(methyl)sulfamoyl]amino]-2-fluoro-benzoyl]-5-[6-(trifluoromethyl)-3-pyridyl]-1H-pyrrolo[2,3-b]pyridine] | < 0.1 µM | > 10 µM | < 1 µM |  |
| CCN(C)S(=O)(=O)Nc1ccc(F)c(C(=O)c2c[nH]c3ncc(C#N)cc23)c1F [Compound P-0017, 5-cyano-3-[3-[[ethyl(methyl)sulfamoyl]amino]-2,6-difluoro-benzoyl]-1H-pyrrolo[2,3-b]pyridine] | < 0.1 µM | > 10 µM | > 1 µM |  |
| O=C(c1cccc(NS(=O)(=O)N2CCCC2)c1F)c1c[nH]c2ncc(-c3ccccc3)cc12 [Compound P-0063, N-[2-fluoro-3-(5-phenyl-1H-pyrrolo[2,3-b]pyridine-3-carbonyl)phenyl]pyrrolidine-1-sulfonamide] | < 0.1 µM | > 10 µM | < 1 µM |  |
| CCN(C)S(=O)(=O)Nc1cccc(C(=O)c2c[nH]c3ncc(Br)cc23)c1F [Compound P-0038, 5-bromo-3-[3-[[ethyl(methyl)sulfamoyl]amino]-2-fluoro-benzoyl]-1H-pyrrolo[2,3-b]pyridine] | < 0.1 µM | > 10 µM | > 1 µM |  |
| O=C(c1cccc(NS(=O)(=O)N2CCCC2)c1F)c1c[nH]c2ncc(-c3ccc(F)cc3)cc12 [Compound P-0062, N-[2-fluoro-3-[5-(4-fluorophenyl)-1H-pyrrolo[2,3-b]pyridine-3-carbonyl]phenyl]pyrrolidine-1-sulfonamide] | < 0.1 µM | > 10 µM | < 1 µM |  |
| CCN(C)S(=O)(=O)Nc1cccc(C(=O)c2c[nH]c3ncc(Cl)cc23)c1F [Compound P-0018, 5-chloro-3-[3-[[ethyl(methyl)sulfamoyl]amino]-2-fluoro-benzoyl]-1H-pyrrolo[2,3-b]pyridine] | < 0.1 µM | > 10 µM | > 1 µM |  |
| CN(C)S(=O)(=O)Nc1cccc(C(=O)c2c[nH]c3ncc(-c4cnc(C5CC5)nc4)cc23)c1F [Compound P-0052, 5-(2-cyclopropylpyrimidin-5-yl)-3-[3-(dimethylsulfamoylamino)-2-fluoro-benzoyl]-1H-pyrrolo[2,3-b]pyridine] | < 0.1 µM | > 10 µM | < 1 µM |  |
| CN(C)S(=O)(=O)Nc1cccc(C(=O)c2c[nH]c3ncc(-c4ccc(C(F)(F)F)nc4)cc23)c1F [Compound P-0053, 3-[3-(dimethylsulfamoylamino)-2-fluoro-benzoyl]-5-[6-(trifluoromethyl)-3-pyridyl]-1H-pyrrolo[2,3-b]pyridine] | < 0.1 µM | > 10 µM | < 1 µM |  |
